pIC50: −log10 of the molar value. “Also recorded” adds a separate entry of the source.
Legend:
[1] = system: lipid peroxidation by active oxygen; settings: cited from earlier work
central nervous system = settings: in vivo; cited from earlier work
[2] = system: electroencephalogram under normal state; settings: deemed to be a side action in clinic; cited from earlier work
[3] = cited from earlier work
[4] = system: drowsy pattern of electroencephalogram induced by phenobarbital or pentobarbital sodium salt; experiment: Antagonistic action against drowsy pattern of electroencephalogram induced by phenobarbital or pentobarbital sodium salt; type: in vivo, Wistar-strain male rat; settings: Rattus norvegicus; intravenous, sodium salt; drowsy EEG after PHB 30 mg/kg or PBT 5 mg/kg; read-out: Antagonistic action at dose or higher
Procedure: (2) Antagonistic action against drowsy pattern of so electroencephalogram induced by phenobarbital or pentobarbital sodium salt
A Wistar-strain male rat weighing about 400 g was intramasculary administered with 0.6 mg of d-tubocurarine to be immobilized and, while maintaining the rectal temperature at 37° to 38° C. under artificial respiration, the electroencephalogram of the left cerebral frontal cortex was measured and recorded. Also, within the left femoral artery and vein, cannulas for measurement of artery pressure and for administration of medicine were placed, respectively.
As the active ingredient of the present invention, sodium salt of the compound represented by Formula (I) was used and the respective doses of said active ingredient and 30 mg/kg of phenobarbital sodium salt (produced by Iwaki Seiyaku K.K.) (hereinafter called "PHB") or 5 mg/kg of pentobarbital sodium salt (hereinafter called PBT) were each dissolved in physiological saline and administered intravenously in a liquid amount of 1 ml/kg.
The action of the active ingredient of the present invention affecting the cortex electroencephalogram after PHB or PBT administration was investigated as follows; Namely, at the time of 5 minutes or later after PHB or PBT administration when increase of the slow-wave component can be clearly recognized on electroencephalogram, 1, 3, 10, 30 and 100 mg/kg of the active ingredient were administered. To the control group 1 ml/kg of physiological saline was intravenously administered.
Recording and analysis of electroencephalogram were continuously drawn together with artery pressure, heart rate and rectal temperature on the recorder through a multi-purpose monitoring recording device (model RM-85, produced by Nippon Koden K.K.). At the same time, electroencephalogram was recorded in data recorder (model A-65, produced by Sony K.K.), and compressed spectral array analysis was conducted by means of a computer for medical data processing (ATAC-450, produced by Nippon Koden K.K.).

[5] = system: cerebral ischemia recirculation model; experiment: Protective action in cerebral ischemia recirculation model; type: in vivo, Wistar-strain male rat; set-up: key to Presence of electroencephalogram restoration / Judgement of action: The case when restoration of electroencephalogram is judged as +; case when not recognized as -; settings: 10 mg/kg into duodenum; 10 min cerebral ischemia (Table 3)
Procedure: (3) Protective action in cerebral ischemia recirculation model
A Wistar-strain male rat weighing about 400 g was administered intramascularly with 0.6 mg of di-tubocurarine to be immobilized and, after a trachea cannulation, the head portion was fixed under artificial respiration on a stereotaxic device. The head skin was cut open, cranial bone was bored, and then bipolar electrode for lead-out of electroencephalogram were placed on the surface of the subdural left frontal cerebral cortex. After the electrode was fixed with the cranial bone by use of dental cement, the animal was held on its back. Next, a cannula for measurement of systemic pressure was placed within the left femoral artery, and a cannula for additional administration of d-tubocurarine within the left femoral vein, respectively. The heart rate was measured and recorded by driving a heart rate meter with the artery wave.
After blood pressure, heart rate and various parameters of electroencephalogram were stabilized, 10 mg/kg of the active ingredient of the present invention prepared in a suspension so as to give 1 ml/kg in 1% tragacanth gum solution was administered directly into duodenum […]. To the control group, only the 1% tragacanth gum solution of the same volume was administered similarly.
Ten to twenty minutes after administration of the medicine, while monitoring the electroencephalogram, blood pressure and heart rate on a multi-purpose monitoring recording device (RM-85 model, produced by Nippon Koden K.K.), the following operations were performed according to the methods shown below for cerebral ischemia loading.
First, ribs were set free at the left costicartilage end to open the chest. Next, cerebral blood flow was blocked for ten minutes by obstructing the left common carotid artery and the left subclavian artery exposed at the aorta originating portion at the same time, and then the brachiocephalic trunk by use of artery clips 30 minutes after administration of the medicine.
Recirculation of cerebral blood flow was effected by releasing at the same time the two artery clips mounted on the respective sites as mentioned above.
The protective action of the medicine for the disorder after recirculation of cerebral ischemia was examined by the presence of restoration of electroencephalogram, and survival time of animal after the recirculation.
During the experiment, the rectal temperature of the animal was maintained at 37° to 38° C. by use of a warming mat. Also, the rectal temperature was continuously drawn on the recorder together with electroencephalogram, femoral artery pressure and heart rate.

[6] = system: lipid peroxidation (brain homogenate); experiment: Inhibitory action of lipid peroxidation in brain homogenate (TBA value); type: biochemical; settings: inhibition of lipid peroxidation, rat brain homogenate, 37° C., 30 minutes
Procedure: (1) Inhibitory action of lipid peroxidation (a) Preparation of brain homogenate By use of Wister-strain male rat, brain homogenate was prepared following the procedure as described below. […] Next, a brain perfusion was conducted through the tube with ice-cooled 50 mM phosphate-buffered physiological saline (pH 7.4) hereinafter referred to as "PBS"), and the whole brain was extirpated. After removal of cerebellum, the wet weight of cerebrum was measured and, with addition of 9-fold amount of PBS, it was broken by a Teflon homogenizer in ice-water to be homogenized. After the brain homogenate was subjected to centrifugation at 4° C. at 2200 rpm for 10 minutes, 0.3 ml of the supernatant was apportioned into a light-shielding test tube equipped with a ground stopper, to provide a brain homogenate for evaluation of medicine. (b) Evaluation of test medicine To the brain homogenate produced in (a), 0.6 ml of PBS and 10 μl of ethanolic solution of a test medicine were added (to a final concentration of 500 μM or a concentration at a common ratio of 3 between 0.3 and 100 μm), and the mixture was heated in a warm bath at 37° C. for 30 minutes. […] Also, the same operation was performed by addition of 10 μl of ethanol (blank) in place of 10 μl ethanolic solution of the test medicine for measurement of blank. […] After shaking for about 30 seconds, the mixture was subjected to centrifugation at 3000 rpm for 10 minutes, and the supernatant was provided as a sample for measurement of peroxidized lipid.

Row | Molecule | inhibition of lipid peroxidation by active oxygen [1] | minimal effective dose [4] | Presence of electroencephalogram restoration [5] | pIC50 [6] | also measured
1 | CCN(CC)Cc1nccn1-c1ccc([N+](=O)[O-])cc1C(=O)c1ccccc1Cl [nizofenone] | can inhibit lipid peroxidation by active oxygen |  |  |  | central nervous system depressant activity (central nervous system): potent central nervous system depressant activity
2 | NC(=O)[C@@H]1CCCN1C(=O)[C@H](Cc1cnc[nH]1)NC(=O)[C@@H]1CCC(=O)N1 [TRH, L-pyrroglutamyl-L-histidyl-L-prolineamide] |  |  |  |  | action against electroencephalogram under normal state [2]: exhibites an action
3 | COC1=C(OC)C(=O)C(CCCCCCCCCCO)=C(C)C1=O [idebenone] | can inhibit lipid peroxidation by active oxygen |  |  |  | solubilizing in water [3]: difficulty in solubilizing in water
4 | CCCC1=NN(c2ccccc2)C(=O)C1 [Compound 25, 1-Phenyl-3-propyl-2-pyrazolin-5-one] |  | ≥ 10 mg/kg | + | 5.23 | 
5 | vitamin E | can inhibit lipid peroxidation by active oxygen; also recorded: only unsatisfactory action |  |  |  | 
6 | CC1=NN(c2ccc(C)cc2)C(=O)C1 [Compound 4] |  | ≥ 10 mg/kg | + | 5.20 | 

From patent USRE35801E, “Prophylactic and therapeutic composition for circulatory disorders and method of treatment” (priority 1985, dated 1998)
